From patent US4927826A, “Cycloproylpropenamides useful as platelet activing factor (PAF) antagonists” (Hoffman-La Roche Inc., priority 1988, dated 1990)
One block for each molecule: values may come before it.

How the values were obtained:
[1] = test system: PAF-induced Platelet Count Decrease; test: PAF induced platelet count decrease; format: in vivo, guinea pig; conditions: for Percent Inhib. of PAF-induced Platelet Count Decrease, 3 mg/Kg i.v.: guinea pig, 15 minutes after drug injection, PAF 75 ng/kg i.v.
Description: PAF INDUCED PLATELET COUNT DECREASE
Male Hartley guinea pigs weighing between 500 and 900 grams were fed standard guinea pig chow and tap water ad libitum. PAF was solubilized in ethanol and stored as a 2 mM stock solution at -70° C. The stock solution of PAF was diluted to 1 pM in Tris buffer pH 7.4 and 0.1% BSA for all experiments.
(a) Intravenous Procedure
Guinea pigs were anesthetized with urethane (1.6 g/kg, i.p.). A catheter (PE50) was introduced into the right carotid artery for withdrawing blood. A second catheter PE10) was introduced into the jugular vein for injecting drugs and for administering the PAF challenge (75 ng/kg, i.v.). A control blood sample was obtained and platelets were counted in a whole blood platelet analyzer. PAF was then given and blood samples were taken 15, 30, and 60 seconds after the challenge for platelet counts. Fifteen minutes later, selected concentrations of the test compound were solubilized in DMSO and injected intravenously into a group of 4-6 animals. Only one concentration of antagonist was used in each animal group. Fifteen minutes after drug injection, blood samples were taken before and 15, 30, and 60 sec after the PAF challenge, and analyzed for platelet number.
Animals were anesthetized with sodium pentobarbital (35 mg/kg, i.p.) and the caritoid artery and jugular vein were cannulated as described above. The cannulae were exteriorized at the base of the neck and the animals were allowed to recover. At least 18 hours after surgery, conscious unrestrained guinea pigs were used in the experiment. The animals were challenged two time with PAF (120 ng/kg, i.v.); the first to establish a consistent response to PAF and the second to serve as a control for the PAF challenge. Blood samples were taken before and 15, 30, and 45 seconds after PAF challenge and platelets were counted. Thirty minutes after the control PAF challenge, the animal were orally dosed with either gum acacia or the test compound. Animals were then challenged with PAF at 1, 3, 5, and 24 hours after the administration of the drug.
DATA ANALYSIS AND STATISTICS
The % change, i.e., the difference in platelet number before and after PAF challenge was calculated by: [formula]
Statistical significance (p 0.05) of the difference between the mean PAF control and mean drug treated activity was determined with paried Student's t-test.

dog platelets = test: Binding assay: inhibition of 3H-PAF binding to dog platelets; conditions: 10 minutes at room temperature
Description: The binding assay was done in 400 μl polyethylene microcentrifuge tubes (Beckman) containing 50 μl of an oil mixture of 2 parts Siliconol AR200 (Serva): 1 part Silicone Fluid (Arthur H. Thomas). Buffer, standards, or analogs (150 μl total volume) were added to the tubes. Radiolabelled ^3 H-PAF (50 μl) was then added to the tubes. The reaction was started by the addition of 50 μl of dog platelets (2×10^7 platelets). The tubes were capped, inverted several times to mix, and incubated for 10 minutes at room temperature. The platelets were separated from the incubation mixture by centrifuging 1 minute in a Beckman Microfuge B centrifuge. The tip of the microfuge tube was cut off, and the platelets were washed out of the tip with 200 μl of 50% methanol (Burdick and Jackson). Aquasol (NEN, 10 ml) was added and the radioactivity in the samples was determined using an LS 8100 Beckman liquid scintillation counter linked to a Techtran tape recorder. Data was processed through an in-house computer system. Alternatively, radioactivity was determined using a Searle Mark III liquid scintillation counter linked to a Iso-Data microprocessor.
(b) Preparation of Platelets
Blood was collected from anesthesized or unanesthesized dogs into 50 ml plastic centrifuge tubes containing 3.8% sodium citrate as the anticoagulant (1 volume of citrate/9 volumes of blood). The red cells were removed by centrifugation for 15 minutes at 600 rpm (100-125 g) at room temperature. An aliquot of the supernatant platelet rich plasma (PRP) was saved for cell counting and the remainder was acidified by pH 6.5 with 0.15M citric acid. The platelet pellet was obtained after a 10 minute centrifugation at 2000 rpm (1000 g) at room temperature. Washed platelets were prepared by resuspending the platelet pellet once with PBS containing 1 mM EDTA, centrifuging as noted, and then resuspending the platelets in 0.1% BSA-PBS. An aliquot of the washed platelets was counted. Platelets used for binding assays were diluted to 2×10^7 platelets/assay tube (4×10^8 platelets/ml). Platelet counting was done using a Royco Cell-Crit 921.

[2] = test system: PAF-induced Bronchoconstriction; test: PAF Induced Bronchoconstriction Assay; format: in vivo; conditions: guinea pig, ± standard error of the mean; for Percent Inhib. of PAF-induced Bronchoconstriction, 50 mg/Kg p.o.: 2-hour pretreatment, PAF i.v.; for Percent Inhib. of PAF-induced Bronchoconstriction, 1 mg/Kg i.v.: 1 minute pretreatment, PAF 1.0 μg/kg i.v.
Description: PAF Induced Bronchoconstriction Assay
Male animals (Hartlet Strain, 400-500 g) were anesthetized with urethane (2 g/kg, i.p.). Each animals' trachea was cannulated and the guinea pigs were respirated using a Harvard small animal rodent respirator (3.0 cc stroke volume, 40 breaths per min.). Tracheal pressure was recorded from a cannula inserted in the trachea and connected to a Statham Pressure Transducer.
The jugular vein was cannulated for administering compounds. Spontaneous breathing was arrested with succinylcholine (1.2 mg/kg, i.v.) administered 2 minutes prior to intravenous injection of platelet activating factor (PAF).
For, the intravenous testing, the guinea pig is given a 5-minute pretreatment with propranolol at a dose of 0.1 mg/kg intravenously. The test compound is administered with a 1 minute pretreatment prior to intravenous challenge with PAF. The animal is then challenged with a 1.0 μg/kg intravenous dose of PAF and the change is tracheal pressure is measured.
For the oral testing, the procedure includes a 2-hour pretreatment period with the test compound administered through an oral gavage tube. Propranolol or succinylcholine and PAF are administered intravenously, and the change in tracheal pressure measured.
The change is tracheal pressure is determined by subtracting the steady state baseline achieved after administration of succinylcholine from the peak bronchoconstriction seen after challenge with PAF. The mean is calculated for each test compound and compared to the mean of the control animals to give the percent inhibition of bronchoconstriction. The standard error is calculated as the standard error of the mean.

SMILES: O=C(/C=C\C1CC1(c1cccc(F)c1)c1cccc(F)c1)NCCCCc1cccnc1 (racemic) [[R,S-(Z)]-3-[2,2-bis(3-Fluorophenyl)cyclopropyl]-N-[4-(3-pyridinyl)butyl]-2-propenamide]
- Percent Inhib. of PAF-induced Platelet Count Decrease, 3 mg/Kg i.v. [1]: 22%
- IC50 (dog platelets): 100 nM
- Percent Inhib. of PAF-induced Bronchoconstriction, 50 mg/Kg p.o. [2]: 52 ± 28%

SMILES: O=C(/C=C/C1CC1(c1cccc(F)c1)c1cccc(F)c1)NCCCCc1cccnc1 (racemic) [[R,S-(E)]-3-[2,2-bis(3-Fluorophenyl)cyclopropyl]-N-[4-(3-pyridinyl)butyl]-2-propenamide]
- Percent Inhib. of PAF-induced Platelet Count Decrease, 3 mg/Kg i.v. [1]: 30%
- IC50 (dog platelets): 53 nM
- Percent Inhib. of PAF-induced Bronchoconstriction, 1 mg/Kg i.v. [2]: 96 ± 2%

SMILES: COc1cccc(C2(c3cccc(OC)c3)C[C@@H]2/C=C/C(=O)NCCCCc2cccnc2)c1 [[R-(E)]-3-[2,2-bis(3-Methoxyphenyl)cyclopropyl]-N-[4-(3-pyridinyl)butyl]-2-propenamide]
- IC50 (dog platelets): 300 nM
- Percent Inhib. of PAF-induced Bronchoconstriction, 1 mg/Kg i.v. [2]: 8 ± 5%
- Percent Inhib. of PAF-induced Bronchoconstriction, 50 mg/Kg p.o. [2]: 8 ± 2%

Further lines, with some results ahead:

- IC50 (dog platelets): 35 nM
SMILES: O=C(/C=C/[C@@H]1CC1(c1ccccc1)c1ccccc1)NCCCCc1cccnc1 [[S-(E)]-3-(2,2-Diphenylcyclopropyl)-N-[4-(3-pyridinyl)butyl]-2-propenamide]
- Percent Inhib. of PAF-induced Platelet Count Decrease, 3 mg/Kg i.v. [1]: 44%
- Percent Inhib. of PAF-induced Bronchoconstriction, 1 mg/Kg i.v. [2]: 86 ± 7%

- IC50 (dog platelets): 24 nM
SMILES: O=C(/C=C/[C@@H]1CC1(c1cccc(F)c1)c1cccc(F)c1)NCCCCc1cccnc1 [[S-(E)]-3-[2,2-bis(3-Fluorophenyl)cyclopropyl]-N-[4-(3-pyridinyl)butyl]-2-propenamide]
- Percent Inhib. of PAF-induced Platelet Count Decrease, 30 mg/Kg p.o. ([1]; conscious guinea pig, 30 mg/Kg p.o., PAF 120 ng/kg i.v.): 66%
- Percent Inhib. of PAF-induced Bronchoconstriction, 1 mg/Kg i.v. [2]: 90 ± 4%
- Percent Inhib. of PAF-induced Bronchoconstriction, 50 mg/Kg p.o. [2]: 95 ± 79%
